From EP4603105A1, “PHARMACEUTICAL COMPOSITION CONTAINING CYCLIC COMPOUND HAVING SELECTIVE KRAS INHIBITORY EFFECT AGAINST HRAS AND NRAS” (CHUGAI SEIYAKU KABUSHIKI KAISHA, priority 2022, dated 2024)
Where a SMILES comes first, the peptide text is derived from it. Bridges are numbered along the chain shown (N, C = ends). [ ]: non-standard residue; d: D form. The star is where a group is joined. hPhe(3,5-F2-4-CF3) = N[C@@H](CCc1cc(F)c(C(F)(F)F)c(F)c1)C(=O)O; hPhe(3-Cl-4-CF3) = N[C@@H](CCc1ccc(C(F)(F)F)c(Cl)c1)C(=O)O; NPrPhe(4-CF3) = CCCN[C@@H](Cc1ccc(C(F)(F)F)cc1)C(=O)O; NMeGly(cPent) = CN[C@H](C(=O)O)C1CCCC1; αMeI = CC[C@H](C)[C@](C)(N)C(=O)O; Hyp = O=C(O)[C@@H]1C[C@@H](O)CN1; Gly(cBu) = N[C@H](C(=O)O)C1CCC1; NMeD = CN[C@@H](CC(=O)O)C(=O)O; NMeL = CN[C@@H](CC(C)C)C(=O)O; Morpholide = C1CN(*)CCO1; Ac5c = NC1(C(=O)O)CCCC1; Ac4c = NC1(C(=O)O)CCC1; NEtG = CCNCC(=O)O; Sar = CNCC(=O)O

Columns and labels:
[1] = test system: human lung cancer strain NCI-H441; format: cell-based
Outline: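 Proliferation was scored by […] measured after the reagent was added to cultures kept at 37°C in 5% carbon dioxide.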

HRAS wild-type protein = HRAS wild-type protein (Homo sapiens, UniProt P01112); assay: Binding to HRAS by surface plasmon resonance (SPR), KD and KD ratio to KRAS
Outline: (§1)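 Single-cycle kinetics on GDP-loaded biotin-Avi RAS captured to ~100–300 RU; 75 s ascending injections, 100 µL/min, 30°C. HBS pH 7.4 + 10 mM MgCl2/10 µM GDP/4% DMSO. 1:1 fit, KD.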

[2] = molecular target: GDP-bound NRAS wild-type protein (Homo sapiens, UniProt P01111); assay: Binding to NRAS by surface plasmon resonance (SPR), KD and KD ratio to KRAS
Outline: as §1

[3] = ratio of the KD value with respect to HRAS wild-type protein to the KD value with respect to KRAS
[4] = ratio of the KD value with respect to GDP-bound NRAS wild-type protein to the KD value with respect to KRAS
[5] = ratio of KD value for HRAS wild-type protein to KD value for KRAS (SPR)
[6] = ratio of KD value for GDP-bound NRAS wild-type protein to KD value for KRAS (SPR)
[7] = ratio of KD for HRAS wild-type protein to KD for KRAS
[8] = ratio of KD for GDP-bound NRAS wild-type protein to KD for KRAS

Chain of GDP-bound NRAS wild-type protein (P01111 whole entry): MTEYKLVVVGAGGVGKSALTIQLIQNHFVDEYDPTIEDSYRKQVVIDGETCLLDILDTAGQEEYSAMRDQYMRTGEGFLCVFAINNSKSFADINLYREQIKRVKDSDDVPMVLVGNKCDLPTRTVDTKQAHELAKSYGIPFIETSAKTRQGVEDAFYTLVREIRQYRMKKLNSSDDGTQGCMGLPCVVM
Chain of HRAS wild-type protein (P01112 whole entry): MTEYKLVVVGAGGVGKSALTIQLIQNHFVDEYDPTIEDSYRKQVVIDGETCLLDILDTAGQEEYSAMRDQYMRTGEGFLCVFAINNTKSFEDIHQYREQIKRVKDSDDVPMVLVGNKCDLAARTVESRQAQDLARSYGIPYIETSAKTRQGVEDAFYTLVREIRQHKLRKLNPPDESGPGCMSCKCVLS

Row | SMILES | IC50 [1] | HRAS /KRAS (HRAS wild-type protein; [3]) | NRAS /KRAS [2, 4] | HRAS /KRAS (HRAS wild-type protein; [5]) | NRAS /KRAS [2, 6] | HRAS /KRAS (HRAS wild-type protein; [7]) | NRAS /KRAS [2, 8]
1 | CCCN1C(=O)CN(C)C(=O)CN(CC)C(=O)[C@H]([C@@H](C)CC)NC(=O)[C@H](CC(C)C)N(C)C(=O)C[C@@H](C(=O)N2CCOCC2)N(C)C(=O)[C@H](C2CCCC2)N(C)C(=O)C2(CCC2)NC(=O)[C@@H]2C[C@@H](OCC)CN2C(=O)[C@H](CCc2ccc(C(F)(F)F)c(Cl)c2)NC(=O)CN(C)C(=O)[C@@H]1Cc1ccc(C(F)(F)F)cc1 [PP0401] ([NMeL]I[NEtG][Sar][NPrPhe(4-CF3)][Sar][hPhe(3-Cl-4-CF3)][Hyp](Et)[Ac4c][NMeGly(cPent)][NMeD]-Morpholide; lactam N-11) | 5.1 nM | B (a compound having 3 or more and less than 10 is denoted as B) | B (a compound having 3 or more and less than 10 is denoted as B) |  |  |  | 
2 | CC[C@H](C)[C@@H]1NC(=O)[C@H](CC2CC2)N(C)C(=O)C[C@@H](C(=O)N(C)C)N(C)C(=O)[C@H](C2CCCC2)N(C)C(=O)C2(CC(C)(C)C2)NC(=O)[C@@H]2C[C@@H](F)CN2C(=O)[C@H](CCc2cc(F)c(C(F)(F)F)c(F)c2)NC(=O)CN(C)C(=O)[C@H](Cc2ccc(C(F)(F)F)cc2)N2CC/C=C\C[C@@H](C2=O)N(C)C(=O)CN(C)C1=O [PP1501] | 1.5 nM |  |  | A (a compound having 10 or more and less than 20 is denoted as A) | A (a compound having 10 or more and less than 20 is denoted as A) |  | 
3 | CCCN1C(=O)CN(C)C(=O)CN(CC)C(=O)[C@H](C2CCC2)NC(=O)[C@H](CC(C)C)N(C)C(=O)C[C@@H](C(=O)N2CCOCC2)N(C)C(=O)[C@H](C2CCCC2)N(C)C(=O)C2(CCCC2)NC(=O)[C@@H]2CCCN2C(=O)[C@H](CCc2ccc(C(F)(F)F)c(Cl)c2)NC(=O)CN(C)C(=O)[C@@H]1Cc1ccc(C(F)(F)F)cc1 [PP0292] ([NMeL][Gly(cBu)][NEtG][Sar][NPrPhe(4-CF3)][Sar][hPhe(3-Cl-4-CF3)]P[Ac5c][NMeGly(cPent)][NMeD]-Morpholide; lactam N-11) | 36.3 nM |  |  |  |  | C (A compound having a KD ratio of 0.1 or more and less than 3 is denoted as C) | B (a compound having 3 or more and less than 10 is denoted as B)
4 | CCCN1C(=O)CN(C)C(=O)CN(C)C(=O)[C@H]([C@@H](C)CC)NC(=O)[C@H](CC(C)C)N(C)C(=O)C[C@@H](C(=O)N2CCOCC2)N(C)C(=O)[C@H](C2CCCC2)N(C)C(=O)[C@](C)([C@@H](C)CC)NC(=O)[C@@H]2CCCN2C(=O)[C@H](CCc2cc(F)c(C(F)(F)F)c(F)c2)NC(=O)CN(C)C(=O)[C@@H]1Cc1ccc(C(F)(F)F)cc1 [PP0757] ([NMeL]I[Sar][Sar][NPrPhe(4-CF3)][Sar][hPhe(3,5-F2-4-CF3)]P[αMeI][NMeGly(cPent)][NMeD]-Morpholide; lactam N-11) | 480 nM | C (A compound having a KD ratio of 0.1 or more and less than 3 is denoted as C) | B (a compound having 3 or more and less than 10 is denoted as B) |  |  |  | 
5 | CC[C@H](C)[C@@H]1NC(=O)[C@H](CC2CC2)N(C)C(=O)C[C@@H](C(=O)N(C)C)N(C)C(=O)[C@H](C2CCCC2)N(C)C(=O)C2(CCC2)NC(=O)[C@@H]2[C@@H](OCC(F)F)CCN2C(=O)[C@H](CCc2cc(F)c(C(F)(F)F)c(F)c2)NC(=O)CN(C)C(=O)[C@H](Cc2ccc(C(F)(F)F)cc2)N2CC/C=C\C[C@@H](C2=O)N(C)C(=O)CN(C)C1=O [PP1533] | 23.8 nM |  |  | A (a compound having 10 or more and less than 20 is denoted as A) | AA (a compound having 20 or more is denoted as AA) |  | 
6 | CC[C@H](C)[C@@H]1NC(=O)[C@H](CC(C)C)N(C)C(=O)C[C@@H](C(=O)N2CCOCC2)N(C)C(=O)[C@H](C2CCCC2)N(C)C(=O)C2(CCC2)NC(=O)[C@@H]2[C@@H](OCC3CCCC3)CCN2C(=O)[C@H](CCc2cc(F)c(C(F)(F)F)c(F)c2)NC(=O)CN(C)C(=O)[C@H](Cc2ccc(C(F)(F)F)cc2)N2CCCC[C@@H](C2=O)N(C)C(=O)CN(C)C1=O [PP1073] | 83.7 nM |  |  |  |  | B (a compound having 3 or more and less than 10 is denoted as B) | B (a compound having 3 or more and less than 10 is denoted as B)
7 | CCC[C@H]1C(=O)N[C@@H](C2CCCC2)C(=O)N(C)CC(=O)N(C)[C@H]2C/C=C\CCN(C2=O)[C@@H](Cc2ccc(C)cc2)C(=O)N(C)CC(=O)N[C@@H](CCc2cc(F)c(C(F)(F)F)c(F)c2)C(=O)N2CC3(CC3)C[C@H]2C(=O)NC2(CC(C)(C)C2)C(=O)N(C)[C@@H](CC(C)(C)C)C(=O)N(C)[C@H](C(=O)N(C)C)CC(=O)N1C [PP2999] | 11.4 nM |  |  |  |  | A (a compound having 10 or more and less than 20 is denoted as A) | AA (a compound having 20 or more is denoted as AA)
